Measured values reported in US20090137664A1, “SAURURUS CERNUUS COMPOUNDS THAT INHIBIT CELLULAR RESPONSES TO HYPOXIA” (priority 2003, published 2009).

Tests used:
Type in all cases: cell-based
UO-31 = experiment: NCI in vitro cell line screen (SRB), Renal Cancer UO-31
Experimental: (§1) For exemplary purposes, an embodiment of the present invention was tested for activity with respect to certain cancer cell lines. The following Tables show results from in vitro 60-cell line antitumor testing from the US National Cancer Institute Developmental Therapeutics Program (NCI-DTP) on compound 2. The testing was in connection with the NCI's In Vitro Cell Line Screening Project (IVCLSP). Detailed information regarding the experiments and their interpretation is available from the NCI.

IGROV1 = experiment: NCI in vitro cell line screen (SRB), Ovarian Cancer IGROV1
Experimental: as §1

MOLT-4 = experiment: NCI in vitro cell line screen (SRB), Leukemia MOLT-4
Experimental: as §1

HCT-116 = experiment: NCI in vitro cell line screen (SRB), Colon Cancer HCT-116
Experimental: as §1

UACC-257 = experiment: NCI in vitro cell line screen (SRB), Melanoma UACC-257
Experimental: as §1

HS 578T = experiment: NCI in vitro cell line screen (SRB), Breast Cancer HS 578T
Experimental: as §1

ACHN = experiment: NCI in vitro cell line screen (SRB), Renal Cancer ACHN
Experimental: as §1

SR = experiment: NCI in vitro cell line screen (SRB), Leukemia SR
Experimental: as §1

SF-295 = experiment: NCI in vitro cell line screen (SRB), CNS Cancer SF-295
Experimental: as §1

tumor cell lines = experiment: NCI in vitro 60-cell line antitumor testing, GI50 pattern; settings: GI50 60-cell line pattern
Experimental: as §1
Table 2 depicts the GI50 mean bar graph for tumor cell lines, grouped into various categories (such as colon, breast, etc.) The data are arranged to display the relative response selectivity of each cell line relative to one other. This form of data display is used to examine the relative tumor specificity of a text compound. The curves represent the response of each tumor cell line when treated with compound 2.
Antitumor agents with tumor-specific selectivity are highly desired, in order to reduce the incidence of non-selective cytotoxicity to patients. […] This is of special importance since this NCI/ADR-RES cell line is resistant to many currently used antitumor agents such as adriamycin, taxol, and others.

MDA-MB-231/ATCC = experiment: NCI in vitro cell line screen (SRB), Breast Cancer MDA-MB-231/ATCC
Experimental: as §1

[1] = Homo sapiens, read-out: LC50 (the source's name)

COc1ccc([C@@H](O)[C@@H](C)Oc2ccc([C@H]3O[C@H](c4ccc(O[C@H](C)[C@H](O)c5ccc6c(c5)OCO6)c(OC)c4)[C@H](C)[C@H]3C)cc2OC)cc1OC [Compound 2, manassantin B]
TGI (UO-31): >1.00E−4 Molar | GI50 (UO-31; Homo sapiens): 3.9 µM | CC50 (UO-31; [1]): > 100 µM | Mean Optical Densities (UO-31; Log10 Concentration −4.0 Molar): 0.786 | Percent Growth (UO-31; Log10 Concentration −4.0 Molar): 33% | Mean Optical Densities (UO-31; Log10 Concentration −5.0 Molar): 0.841 | Percent Growth (UO-31; Log10 Concentration −5.0 Molar): 39% | Mean Optical Densities (UO-31; Log10 Concentration −6.0 Molar): 1.102 | Percent Growth (UO-31; Log10 Concentration −6.0 Molar): 66% | Mean Optical Densities (UO-31; Log10 Concentration −7.0 Molar): 1.189 | Percent Growth (UO-31; Log10 Concentration −7.0 Molar): 75% | Mean Optical Densities (UO-31; Log10 Concentration −8.0 Molar): 1.250 | Percent Growth (UO-31; Log10 Concentration −8.0 Molar): 81% | TGI (IGROV1): >1.00E−4 Molar | GI50 (IGROV1; Homo sapiens, IGROV-1): 14 µM | CC50 (IGROV1; Homo sapiens, IGROV-1, read-out: LC50 (the source's name)): > 100 µM | Mean Optical Densities (IGROV1; Log10 Concentration −4.0 Molar): 0.336 | Percent Growth (IGROV1; Log10 Concentration −4.0 Molar): 13% | Mean Optical Densities (IGROV1; Log10 Concentration −5.0 Molar): 0.500 | Percent Growth (IGROV1; Log10 Concentration −5.0 Molar): 56% | Mean Optical Densities (IGROV1; Log10 Concentration −6.0 Molar): 0.674 | Percent Growth (IGROV1; Log10 Concentration −6.0 Molar): 102% | Mean Optical Densities (IGROV1; Log10 Concentration −7.0 Molar): 0.674 | Percent Growth (IGROV1; Log10 Concentration −7.0 Molar): 102% | Mean Optical Densities (IGROV1; Log10 Concentration −8.0 Molar): 0.721 | Percent Growth (IGROV1; Log10 Concentration −8.0 Molar): 114% | TGI (MOLT-4): >1.00E−4 Molar | GI50 (MOLT-4; Homo sapiens): 44.7 µM | LC50 (concentration killing 50% of cells) (MOLT-4; Homo sapiens): > 100 µM | Mean Optical Densities (MOLT-4; Log10 Concentration −4.0 Molar): 0.416 | Percent Growth (MOLT-4; Log10 Concentration −4.0 Molar): 47% | Mean Optical Densities (MOLT-4; Log10 Concentration −5.0 Molar): 0.462 | Percent Growth (MOLT-4; Log10 Concentration −5.0 Molar): 55% | Mean Optical Densities (MOLT-4; Log10 Concentration −6.0 Molar): 0.685 | Percent Growth (MOLT-4; Log10 Concentration −6.0 Molar): 90% | Mean Optical Densities (MOLT-4; Log10 Concentration −7.0 Molar): 0.646 | Percent Growth (MOLT-4; Log10 Concentration −7.0 Molar): 84% | Mean Optical Densities (MOLT-4; Log10 Concentration −8.0 Molar): 0.646 | Percent Growth (MOLT-4; Log10 Concentration −8.0 Molar): 84% | TGI (HCT-116): >1.00E−4 Molar | GI50 (HCT-116; Homo sapiens): 2250 nM | CC50 (HCT-116; [1]): > 100 µM | Mean Optical Densities (HCT-116; Log10 Concentration −4.0 Molar): 0.329 | Percent Growth (HCT-116; Log10 Concentration −4.0 Molar): 15% | Mean Optical Densities (HCT-116; Log10 Concentration −5.0 Molar): 0.498 | Percent Growth (HCT-116; Log10 Concentration −5.0 Molar): 32% | Mean Optical Densities (HCT-116; Log10 Concentration −6.0 Molar): 0.770 | Percent Growth (HCT-116; Log10 Concentration −6.0 Molar): 60% | Mean Optical Densities (HCT-116; Log10 Concentration −7.0 Molar): 0.867 | Percent Growth (HCT-116; Log10 Concentration −7.0 Molar): 70% | Mean Optical Densities (HCT-116; Log10 Concentration −8.0 Molar): 0.978 | Percent Growth (HCT-116; Log10 Concentration −8.0 Molar): 81% | TGI (UACC-257): >1.00E−4 Molar | GI50 (UACC-257; Homo sapiens): 1090 nM | CC50 (UACC-257; [1]): > 100 µM | Mean Optical Densities (UACC-257; Log10 Concentration −4.0 Molar): 1.165 | Percent Growth (UACC-257; Log10 Concentration −4.0 Molar): 12% | Mean Optical Densities (UACC-257; Log10 Concentration −5.0 Molar): 1.270 | Percent Growth (UACC-257; Log10 Concentration −5.0 Molar): 23% | Mean Optical Densities (UACC-257; Log10 Concentration −6.0 Molar): 1.558 | Percent Growth (UACC-257; Log10 Concentration −6.0 Molar): 51% | Mean Optical Densities (UACC-257; Log10 Concentration −7.0 Molar): 1.565 | Percent Growth (UACC-257; Log10 Concentration −7.0 Molar): 52% | Mean Optical Densities (UACC-257; Log10 Concentration −8.0 Molar): 1.673 | Percent Growth (UACC-257; Log10 Concentration −8.0 Molar): 62% | TGI (HS 578T): >1.00E−4 Molar | GI50 (HS 578T; Homo sapiens): 10.4 µM | CC50 (HS 578T; [1]): > 100 µM | Mean Optical Densities (HS 578T; Log10 Concentration −4.0 Molar): 0.834 | Percent Growth (HS 578T; Log10 Concentration −4.0 Molar): 17% | Mean Optical Densities (HS 578T; Log10 Concentration −5.0 Molar): 1.018 | Percent Growth (HS 578T; Log10 Concentration −5.0 Molar): 51% | Mean Optical Densities (HS 578T; Log10 Concentration −6.0 Molar): 1.188 | Percent Growth (HS 578T; Log10 Concentration −6.0 Molar): 82% | Mean Optical Densities (HS 578T; Log10 Concentration −7.0 Molar): 1.267 | Percent Growth (HS 578T; Log10 Concentration −7.0 Molar): 96% | Mean Optical Densities (HS 578T; Log10 Concentration −8.0 Molar): 1.222 | Percent Growth (HS 578T; Log10 Concentration −8.0 Molar): 88% | TGI (ACHN): 5.02E−5 Molar | GI50 (ACHN; Homo sapiens): 1820 nM | CC50 (ACHN; [1]): > 100 µM | Mean Optical Densities (ACHN; Log10 Concentration −4.0 Molar): 0.297 | Percent Growth (ACHN; Log10 Concentration −4.0 Molar): −5% | Mean Optical Densities (ACHN; Log10 Concentration −5.0 Molar): 0.351 | Percent Growth (ACHN; Log10 Concentration −5.0 Molar): 11% | Mean Optical Densities (ACHN; Log10 Concentration −6.0 Molar): 0.554 | Percent Growth (ACHN; Log10 Concentration −6.0 Molar): 64% | Mean Optical Densities (ACHN; Log10 Concentration −7.0 Molar): 0.644 | Percent Growth (ACHN; Log10 Concentration −7.0 Molar): 88% | Mean Optical Densities (ACHN; Log10 Concentration −8.0 Molar): 0.590 | Percent Growth (ACHN; Log10 Concentration −8.0 Molar): 73% | TGI (SR): >1.00E−4 Molar | CC50 (SR; [1]): > 100 µM | Mean Optical Densities (SR; Log10 Concentration −4.0 Molar): 0.429 | Percent Growth (SR; Log10 Concentration −4.0 Molar): 22% | Mean Optical Densities (SR; Log10 Concentration −5.0 Molar): 0.561 | Percent Growth (SR; Log10 Concentration −5.0 Molar): 39% | Mean Optical Densities (SR; Log10 Concentration −6.0 Molar): 0.685 | Percent Growth (SR; Log10 Concentration −6.0 Molar): 54% | Mean Optical Densities (SR; Log10 Concentration −7.0 Molar): 0.637 | Percent Growth (SR; Log10 Concentration −7.0 Molar): 48% | Mean Optical Densities (SR; Log10 Concentration −8.0 Molar): 0.616 | Percent Growth (SR; Log10 Concentration −8.0 Molar): 46% | TGI (SF-295): 7.46E−5 Molar | GI50 (SF-295; Homo sapiens): < 10 nM | CC50 (SF-295; [1]): > 100 µM | Mean Optical Densities (SF-295; Log10 Concentration −4.0 Molar): 0.523 | Percent Growth (SF-295; Log10 Concentration −4.0 Molar): −2% | Mean Optical Densities (SF-295; Log10 Concentration −5.0 Molar): 0.621 | Percent Growth (SF-295; Log10 Concentration −5.0 Molar): 11% | Mean Optical Densities (SF-295; Log10 Concentration −6.0 Molar): 0.851 | Percent Growth (SF-295; Log10 Concentration −6.0 Molar): 39% | Mean Optical Densities (SF-295; Log10 Concentration −7.0 Molar): 0.811 | Percent Growth (SF-295; Log10 Concentration −7.0 Molar): 34% | Mean Optical Densities (SF-295; Log10 Concentration −8.0 Molar): 0.751 | Percent Growth (SF-295; Log10 Concentration −8.0 Molar): 27% | selectivity for tumor cell lines (tumor cell lines): up to 10,000 fold | TGI (MDA-MB-231/ATCC): 4.74E−5 Molar | GI50 (MDA-MB-231/ATCC; Homo sapiens): 968 nM | CC50 (MDA-MB-231/ATCC; [1]): > 100 µM | Mean Optical Densities (MDA-MB-231/ATCC; Log10 Concentration −4.0 Molar): 0.384 | Percent Growth (MDA-MB-231/ATCC; Log10 Concentration −4.0 Molar): −7% | Mean Optical Densities (MDA-MB-231/ATCC; Log10 Concentration −5.0 Molar): 0.457 | Percent Growth (MDA-MB-231/ATCC; Log10 Concentration −5.0 Molar): 14% | Mean Optical Densities (MDA-MB-231/ATCC; Log10 Concentration −6.0 Molar): 0.569 | Percent Growth (MDA-MB-231/ATCC; Log10 Concentration −6.0 Molar): 50% | Mean Optical Densities (MDA-MB-231/ATCC; Log10 Concentration −7.0 Molar): 0.630 | Percent Growth (MDA-MB-231/ATCC; Log10 Concentration −7.0 Molar): 69% | Mean Optical Densities (MDA-MB-231/ATCC; Log10 Concentration −8.0 Molar): 0.640 | Percent Growth (MDA-MB-231/ATCC; Log10 Concentration −8.0 Molar): 72%
